Data as given in patent publication US10464911B2, “1,3,4-oxadiazole sulfamide derivative compounds as histone deacetylase 6 inhibitor, and the pharmaceutical composition comprising the same” (Chong Kun Dang Pharmaceutical Corp., priority 2015, dated 2019).
Where a name gives a salt, the structure may show the parent alone.

Biological target: human recombinant HDAC6 (Homo sapiens (Human), UniProt Q9UBN7)
Test: HDAC6 enzyme activity inhibition assay (HDAC Fluorimetric Drug Discovery Kit)
Assay type: biochemical
Settings: for HDAC6 selectivity (fold): HDAC6 versus HDAC1; for IC50: human recombinant HDAC6, same protocol as HDAC1 test
Experimental: In order to examine the HDAC6 selectivity of the compounds of formula I of the present invention by HDAC1 and HDAC6 enzymatic activity inhibition assays, an experiment was performed using a conventional substance as a control.
HDAC enzyme activity was measured using a HDAC Fluorimetric Drug Discovery Kit (BML-AK511, 516, Enzo Life Science). For the HDAC1 enzyme activity test, human recombinant HDAC1 (BML-SE456) was used as an enzyme source, and Fluor de Lys®-“SIRT1 (BNL-KI177) was used as a substrate. A 5-fold dilution of the compound was seeded into a 96-well plate, and then 0.3 μg of the enzyme and 10 μM of the substrate were added to each well of the plate and allowed to react at 30 for 60 minutes. Then, Fluor de Lys®-Developer II (BML-KI176) was added thereto and allowed to react for 30 minutes, after which the fluorescence value (Ex 360, Em 460) was measured using a multi-plate reader (Flexstation 3, Molecular Device). The HDAC6 enzyme was tested using human recombinant HDAC6 (382180) (Calbiochem) according to the same protocol as the HDAC1 enzyme activity test method. Based on the resulting values, each IC50 value was calculated using GraphPad Prism4.0 program.

Chain of human recombinant HDAC6 (Q9UBN7 whole entry): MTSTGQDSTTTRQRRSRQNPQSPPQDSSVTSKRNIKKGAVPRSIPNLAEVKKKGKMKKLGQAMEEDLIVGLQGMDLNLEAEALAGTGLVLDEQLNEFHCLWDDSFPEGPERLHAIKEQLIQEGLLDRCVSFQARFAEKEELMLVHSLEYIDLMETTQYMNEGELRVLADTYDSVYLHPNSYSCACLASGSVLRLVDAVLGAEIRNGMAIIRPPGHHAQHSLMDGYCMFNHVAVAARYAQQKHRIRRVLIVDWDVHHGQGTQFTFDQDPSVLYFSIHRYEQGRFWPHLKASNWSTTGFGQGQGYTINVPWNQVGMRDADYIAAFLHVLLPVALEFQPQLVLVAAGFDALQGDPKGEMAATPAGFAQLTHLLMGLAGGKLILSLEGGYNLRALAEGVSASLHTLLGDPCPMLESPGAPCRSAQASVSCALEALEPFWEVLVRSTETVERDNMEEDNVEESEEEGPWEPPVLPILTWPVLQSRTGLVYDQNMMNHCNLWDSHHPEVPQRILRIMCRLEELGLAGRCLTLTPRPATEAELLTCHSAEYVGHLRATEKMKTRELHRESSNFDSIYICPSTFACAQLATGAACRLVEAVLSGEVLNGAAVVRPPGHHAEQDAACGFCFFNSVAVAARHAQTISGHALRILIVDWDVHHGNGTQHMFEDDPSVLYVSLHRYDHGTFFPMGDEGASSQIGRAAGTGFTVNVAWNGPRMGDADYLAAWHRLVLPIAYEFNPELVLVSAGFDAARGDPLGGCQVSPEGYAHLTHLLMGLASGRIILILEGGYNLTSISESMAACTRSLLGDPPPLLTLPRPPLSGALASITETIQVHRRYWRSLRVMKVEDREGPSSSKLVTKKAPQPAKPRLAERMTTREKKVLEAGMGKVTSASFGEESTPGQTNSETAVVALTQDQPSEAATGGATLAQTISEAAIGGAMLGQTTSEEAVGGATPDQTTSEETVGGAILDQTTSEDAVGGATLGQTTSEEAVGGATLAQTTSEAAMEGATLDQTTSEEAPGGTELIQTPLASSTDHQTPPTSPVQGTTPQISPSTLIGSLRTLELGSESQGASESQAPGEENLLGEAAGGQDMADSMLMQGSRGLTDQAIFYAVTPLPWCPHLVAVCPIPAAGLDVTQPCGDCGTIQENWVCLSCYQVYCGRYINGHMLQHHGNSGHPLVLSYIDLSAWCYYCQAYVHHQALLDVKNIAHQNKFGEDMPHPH

SMILES | HDAC6 selectivity (fold) | IC50 [nM]
CS(=O)(=O)N1CCN(S(=O)(=O)N(Cc2ccc(-c3nnc(C(F)F)o3)cc2F)c2cccc(F)c2)CC1 [Compound 11314, N-(4-(5-(difluoromethyl)-1,3,4-oxadiazol-2-yl)-2-fluorobenzyl)-N-(3-fluorophenyl)-4-(methylsulfonyl)piperazine-1-sulfonamide] | 3061 | 33
CC(=O)N1CCN(S(=O)(=O)N(Cc2ccc(-c3nnc(C(F)F)o3)cc2F)c2cccc(F)c2)CC1 [Compound 11315, 4-acetyl-N-(4-(5-(difluoromethyl)-1,3,4-oxadiazol-2-yl)-2-fluorobenzyl)-N-(3-fluorophenyl)piperazine-1-sulfonamide] | 3367 | 30
CN1CCN(S(=O)(=O)N(Cc2ccc(-c3nnc(C(F)F)o3)cc2F)c2cccc(F)c2)CC1 [Compound 11316, N-(4-(5-(difluoromethyl)-1,3,4-oxadiazol-2-yl)-2-fluorobenzyl)-N-(3-fluorophenyl)-4-methylpiperazine-1-sulfonamide] | 4031 | 25
O=S(=O)(N1CCNCC1)N(Cc1ccc(-c2nnc(C(F)F)o2)cc1F)c1cccnc1 [Compound 11317, N-(4-(5-(difluoromethyl)-1,3,4-oxadiazol-2-yl)-2-fluorobenzyl)-N-(pyridin-3-yl)piperazine-1-sulfonamide Dihydrochloride] | 1234 | 81
CC(=O)N1CCN(S(=O)(=O)N(Cc2ccc(-c3nnc(C(F)F)o3)cc2F)c2cccnc2)CC1 [Compound 11318, 4-acetyl-N-(4-(5-(difluoromethyl)-1,3,4-oxadiazol-2-yl)-2-fluorobenzyl)-N-(pyridin-3-yl)piperazine-1-sulfonamide] | 2299 | 43
CS(=O)(=O)N1CCN(S(=O)(=O)N(Cc2ccc(-c3nnc(C(F)F)o3)cc2F)c2cccnc2)CC1 [Compound 11319, N-(4-(5-(difluoromethyl)-1,3,4-oxadiazol-2-yl)-2-fluorobenzyl)-4-(methylsulfonyl)-N-(pyridin-3-yl)piperazine-1-sulfonamide] | 1464 | 68
CN1CCN(S(=O)(=O)N(Cc2ccc(-c3nnc(C(F)F)o3)cc2F)c2cccnc2)CC1 [Compound 11320, N-(4-(5-(difluoromethyl)-1,3,4-oxadiazol-2-yl)-2-fluorobenzyl)-4-methyl-N-(pyridin-3-yl)piperazine-1-sulfonamide] | 1829 | 55
O=S(=O)(N1CCNCC1)N(Cc1ccc(-c2nnc(C(F)(F)F)o2)cc1F)c1cccnc1 [Compound 11321, N-(2-fluoro-4-(5-(trifluoromethyl)-1,3,4-oxadiazol-2-yl)benzyl)-N-(pyridin-3-yl)piperazine-1-sulfonamide Dihydrochloride] | 2249 | 44
CC(=O)N1CCN(S(=O)(=O)N(Cc2ccc(-c3nnc(C(F)(F)F)o3)cc2F)c2cccnc2)CC1 [Compound 11322, 4-acetyl-N-(2-fluoro-4-(5-(trifluoromethyl)-1,3,4-oxadiazol-2-yl)benzyl)-N-(pyridin-3-yl)piperazine-1-sulfonamide] | 1507 | 66
CN1CCN(S(=O)(=O)N(Cc2ccc(-c3nnc(C(F)F)o3)cn2)c2ccccc2)CC1 [Compound 11363, N-((5-(5-(difluoromethyl)-1,3,4-oxadiazol-2-yl)pyridin-2-yl)methyl)-4-methyl-N-phenylpiperazine-1-sulfonamide] | 6863 | 15
O=S(=O)(N1CCN(C2COC2)CC1)N(Cc1ccc(-c2nnc(C(F)F)o2)cc1F)c1ccccc1 [Compound 11379, N-(4-(5-(difluoromethyl)-1,3,4-oxadiazol-2-yl)-2-fluorobenzyl)-4-(oxetan-3-yl)-N-phenylpiperazine-1-sulfonamide] | 3846 | 26
O=S1(=O)CCN(S(=O)(=O)N(Cc2ccc(-c3nnc(C(F)F)o3)cn2)c2ccccc2)CC1 [Compound 11440, N-((5-(5-(difluoromethyl)-1,3,4-oxadiazol-2-yl)pyridin-2-yl)methyl)-N-phenylthiomorpholine-4-sulfonamide 1,1-dioxide] | 5000 | 20
O=S(=O)(N1CCN(C2COC2)CC1)N(Cc1ccc(-c2nnc(C(F)F)o2)cn1)c1ccccc1 [Compound 11574, N-((5-(5-(difluoromethyl)-1,3,4-oxadiazol-2-yl)pyridin-2-yl)methyl)-4-(oxetan-3-yl)-N-phenylpiperazine-1-sulfonamide] | 6250 | 16
O=S(=O)(N1CCN(C2COC2)CC1)N(Cc1ccc(-c2nnc(C(F)F)o2)cc1)c1ccccc1 [Compound 11575, N-(4-(5-(difluoromethyl)-1,3,4-oxadiazol-2-yl)benzyl)-4-(oxetan-3-yl)-N-phenylpiperazine-1-sulfonamide] | 2083 | 48
CCN1[C@H](C)CN(S(=O)(=O)N(Cc2ccc(-c3nnc(C(F)F)o3)cc2)c2ccccc2)C[C@@H]1C [Compound 11640, (3S,5R)—N-(4-(5-(difluoromethyl)-1,3,4-oxadiazol-2-yl)benzyl)-4-ethyl-3,5-dimethyl-N-phenylpiperazine-1-sulfonamide] | 946 | 105
CC(=O)N1[C@H](C)CN(S(=O)(=O)N(Cc2ccc(-c3nnc(C(F)F)o3)cc2)c2ccccc2)C[C@@H]1C [Compound 11641, (3S,5R)-4-acetyl-N-(4-(5-(difluoromethyl)-1,3,4-oxadiazol-2-yl)benzyl)-3,5-dimethyl-N-phenylpiperazine-1-sulfonamide] | 2989 | 33
CCCN1[C@H](C)CN(S(=O)(=O)N(Cc2ccc(-c3nnc(C(F)F)o3)cc2)c2ccccc2)C[C@@H]1C [Compound 11642, (3S,5R)—N-(4-(5-(difluoromethyl)-1,3,4-oxadiazol-2-yl)benzyl)-3,5-dimethyl-N-phenyl-4-propylpiperazine-1-sulfonamide] | 287 | 348
C[C@@H]1CN(S(=O)(=O)N(Cc2ccc(-c3nnc(C(F)F)o3)cc2)c2ccccc2)C[C@H](C)N1C [Compound 11643, (3S,5R)—N-(4-(5-(difluoromethyl)-1,3,4-oxadiazol-2-yl)benzyl)-3,4,5-trimethyl-N-phenylpiperazine-1-sulfonamide] | 1443 | 69
C[C@@H]1CN(S(=O)(=O)N(Cc2ccc(-c3nnc(C(F)F)o3)cc2)c2ccccc2)C[C@H](C)N1C(=O)C(F)F [Compound 11644, (3S,5R)-4-(2,2-difluoroacetyl)-N-(4-(5-(difluoromethyl)-1,3,4-oxadiazol-2-yl)benzyl)-3,5-dimethyl-N-phenylpiperazine-1-sulfonamide] | 770 | 130
CC(C)N1CCN(S(=O)(=O)N(Cc2ccc(-c3nnc(C(F)F)o3)cc2)c2ccc(F)c(Cl)c2)CC1 [Compound 11651, N-(3-chloro-4-fluorophenyl)-N-(4-(5-(difluoromethyl)-1,3,4-oxadiazol-2-yl)benzyl)-4-iso propylpiperazine-1-sulfonamide] | 207 | 481
O=S(=O)(N1CCN(C2CCC2)CC1)N(Cc1ccc(-c2nnc(C(F)F)o2)cc1)c1ccc(F)c(Cl)c1 [Compound 11652, N-(3-chloro-4-fluorophenyl)-4-cyclobutyl-N-(4-(5-(difluoromethyl)-1,3,4-oxadiazol-2-yl)benzyl)piperazine-1-sulfonamide] | 422 | 237
CC(C)N1CCN(S(=O)(=O)N(Cc2ccc(-c3nnc(C(F)F)o3)cn2)c2ccc(F)c(Cl)c2)CC1 [Compound 11670, N-(3-chloro-4-fluorophenyl)-N-((5-(5-(difluoromethyl)-1,3,4-oxadiazol-2-yl)pyridin-2-yl)methyl)-4-isopropylpiperazine-1-sulfonamide] | 4761 | 21
O=S(=O)(N1CCN(C2CCC2)CC1)N(Cc1ccc(-c2nnc(C(F)F)o2)cn1)c1ccc(F)c(Cl)c1 [Compound 11671, N-(3-chloro-4-fluorophenyl)-4-cyclobutyl-N-((5-(5-(difluoromethyl)-1,3,4-oxadiazol-2-yl)pyridin-2-yl)methyl)piperazine-1-sulfonamide] | 3703 | 27
O=S(=O)(N1CCN(C2COC2)CC1)N(Cc1ccc(-c2nnc(C(F)F)o2)cn1)c1ccc(F)c(Cl)c1 [Compound 11672, N-(3-chloro-4-fluorophenyl)-N-((5-(5-(difluoromethyl)-1,3,4-oxadiazol-2-yl)pyridin-2-yl)methyl)-4-(oxetan-3-yl)piperazine-1-sulfonamide] | 7142 | 14
CC(C)N1CCN(S(=O)(=O)N(Cc2ccc(-c3nnc(C(F)F)o3)cc2)c2ccccc2)CC1 [Compound 11673, N-(4-(5-(difluoromethyl)-1,3,4-oxadiazol-2-yl)benzyl)-4-isopropyl-N-phenylpiperazine-1-sulfonamide] | 1351 | 74
